{"source": "patent US4877881A", "about": "“Process of preparing pyrazoles, isoxazoles and analogs thereof having activity as 5-lipoxygenase inhibitors” (Warner-Lambert Company, priority 1988, dated 1989)", "key": {"[1]": {"target": "T1, 5-lipoxygenase (Rattus norvegicus, UniProt P12527)", "T1 construct": "ARBL/ARBC Whole Cell 5-Lipoxygenase and Cyclooxygenase Assays; endogenous in cells; host or cells: RBL-1 rat basophilic leukemia cells (American Type Culture Collection)", "T1 sequence (P12527 1-673)": "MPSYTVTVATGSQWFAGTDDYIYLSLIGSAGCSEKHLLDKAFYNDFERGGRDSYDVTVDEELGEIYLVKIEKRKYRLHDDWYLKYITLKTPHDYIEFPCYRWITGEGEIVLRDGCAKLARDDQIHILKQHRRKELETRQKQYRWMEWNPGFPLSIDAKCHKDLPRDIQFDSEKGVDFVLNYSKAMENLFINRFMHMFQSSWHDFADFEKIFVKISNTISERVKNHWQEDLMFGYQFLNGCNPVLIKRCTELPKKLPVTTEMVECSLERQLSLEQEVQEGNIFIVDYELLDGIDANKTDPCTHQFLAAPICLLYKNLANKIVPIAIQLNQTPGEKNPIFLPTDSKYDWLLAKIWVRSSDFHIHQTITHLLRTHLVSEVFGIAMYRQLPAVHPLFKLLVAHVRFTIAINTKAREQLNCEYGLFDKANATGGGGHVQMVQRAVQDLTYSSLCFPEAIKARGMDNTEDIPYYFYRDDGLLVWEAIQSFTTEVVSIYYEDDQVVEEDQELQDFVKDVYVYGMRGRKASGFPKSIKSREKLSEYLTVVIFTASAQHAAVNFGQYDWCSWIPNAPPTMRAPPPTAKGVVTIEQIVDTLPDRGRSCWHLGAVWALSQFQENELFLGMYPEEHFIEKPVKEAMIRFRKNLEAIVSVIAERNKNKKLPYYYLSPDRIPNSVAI", "assay": "ARBL Whole Cell 5-Lipoxygenase Assay in RBL-1 cells (LTB4 RIA)", "type": "cell-based", "settings": "RBL-1 intact cell 5-lipoxygenase; A23187 5 μM", "procedure": "ARBL/ARBC Whole Cell 5-Lipoxygenase and Cyclooxygenase Assays\nThe rat basophilic leukemia cell line (RBL-1) was obtained from the American Type Culture Collection (Rockville, Md.).\nRadioimmuno assay (RIA) kits of LTB4 and PGF2α were obtained from Amersham (Arlington Heights, Ill.) and Seragen (Boston, Mass.) respectively.\nAll tissue culture media were obtained from GIBO (Gran Island, N.Y.).\nRBL-1 cells were grown in culture (suspension) in Eagle's minimum essential medium supplemented with 12% fetal bovine serum and 1:100 antibiotic-antimycotic mixture at 37° C. in an incubator supplied with air-5% carbon dioxide. Cells were harvested by centrifugation. They were washed with cold phosphate buffered saline pH 7.4 (PBS; NaCl, 7.1 g; Na2 HOP4, 1.15 g; KH2 PO4, 0.2 g; and KCl, 0.2 g/L). […] Calcium ionophore A23187 (5 μM) was added and cells were incubated for seven minutes at 37° C. The reaction was stopped by chilling the tubes in ice for ten minutes. Cells were separated by centrifugation and the supernatant was stored at -20°. Aliquots (100 μl) were analyzed for LTB4 and PGF2α using radioimmuno assay kits as provided by the supplier."}, "[2]": {"target": "T2, cyclooxygenase (Bos taurus, UniProt O62664)", "T2 construct": "The assay consists of incubating 2 mg bovine seminal vesicle powder; from tissue; host or cells: bovine seminal vesicle powder", "T2 sequence (O62664 25-600)": "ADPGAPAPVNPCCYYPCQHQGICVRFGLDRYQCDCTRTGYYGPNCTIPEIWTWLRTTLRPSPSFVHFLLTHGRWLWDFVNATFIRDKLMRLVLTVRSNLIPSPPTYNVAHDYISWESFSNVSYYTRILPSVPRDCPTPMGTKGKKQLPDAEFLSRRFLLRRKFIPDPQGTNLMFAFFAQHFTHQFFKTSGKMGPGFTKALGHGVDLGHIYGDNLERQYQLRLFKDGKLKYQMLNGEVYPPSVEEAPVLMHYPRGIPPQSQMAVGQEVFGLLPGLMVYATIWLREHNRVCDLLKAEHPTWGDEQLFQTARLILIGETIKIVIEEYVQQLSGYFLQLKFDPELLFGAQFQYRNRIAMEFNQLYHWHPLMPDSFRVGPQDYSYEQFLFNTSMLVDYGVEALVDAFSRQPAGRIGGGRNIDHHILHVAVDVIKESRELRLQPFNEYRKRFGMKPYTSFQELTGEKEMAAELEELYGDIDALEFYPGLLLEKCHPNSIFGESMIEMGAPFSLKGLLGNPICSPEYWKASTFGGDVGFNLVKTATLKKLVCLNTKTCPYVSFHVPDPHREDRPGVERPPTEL", "assay": "Cyclooxygenase Enzyme Assay, bovine seminal vesicle (BSV), PGE2 formation", "type": "biochemical", "settings": "bovine seminal vesicle powder; 100 μM arachidonic acid, 20 minutes", "procedure": "Cyclooxygenase Enzyme Assay\nAdditionally, inhibition of cyclooxygenase is considered a measure of relevance to the pathophysiology of the above noted diseases.\nThe assay consists of incubating 2 mg bovine seminal vesicle powder with 2 mM epinephrine, 2.5 mM reduced glutathione, 100 μM arachidonic acid, and the test agent for 20 minutes. The reaction mixture is acidified and extracted with ethyl acetate (3×1.0 ml) and the pooled extract is evaporated to dryness using a Speed Vac Concentrator or under a stream of nitrogen. The residue was dissolved in ethanol."}}, "data": [{"smiles": "COc1cc(C=Cc2cc(C=Cc3ccc(O)c(OC)c3)[nH]n2)ccc1O", "note": "[Example 1, 3,5-Bis[β-(4'-hydroxy-3'-methoxyphenyl)ethenyl]pyrazole]", "values": [{"measurement": "IC50", "setting": "[1]", "value": 1.6, "unit": "µM"}, {"measurement": "IC50", "setting": "[2]", "value": 66, "unit": "µM"}]}, {"smiles": "Cc1cc(C=Cc2ccc(O)c(Cl)c2)n[nH]1", "note": "[Example 7, 3-[β-(4'-Hydroxy-3'-chlorophenyl)ethenyl]-5-methylpyrazole]", "values": [{"measurement": "IC50", "setting": "[1]", "value": 9.5, "unit": "µM"}, {"measurement": "IC50", "setting": "[2]", "value": 34, "unit": "µM"}]}, {"smiles": "COc1cc(C=Cc2cc(C)n[nH]2)ccc1O", "note": "[Example 5, 3-[β-(4'-Hydroxy-3'-methoxyphenyl)ethenyl]-5-methylpyrazole]", "values": [{"measurement": "IC50", "setting": "[1]", "value": 0.8, "unit": "µM"}, {"measurement": "IC50", "setting": "[2]", "value": 33, "unit": "µM"}]}]}
